What was measured:
CI-MPR = CI-MPR fluorescence in MNs of treated G93A mice; format: in vivo; conditions: 10 mg/kg, day 100
Source text: (§1) We next asked whether increasing VPS35/26 protein levels is sufficient to increase retromer functionality. CI-MPR is unstable in VPS26-knockout cells, and we observed a substantial reduction of CI-MPR MFI levels in MNs of vehicle-treated G93A mice compared with WT litters (Fig. 6c). […] Sortilin encodes a receptor belonging to the Vps10 family involved in Frontotemporal Dementia (FTD)[45], which shares functional homologies with MPRs and is another retromer cargo[46].
(§2) Fluorescence intensity levels of VPS35, VPS26, CI-MPR, Sortilin, CTSD and Ubiquitin were calculated using NHI-Image J software (US National Institutes of Health) according to the following protocol: stacks of confocal images were used to generate the maximal projections using the Leica Application Suite X (2.0.0.14332) software and then postprocessed by NHI-Image J to crop single NeuN^+ MNs from the ventral horn of the spinal cord. We next performed background (calculated on adjacent slices only receiving secondary antibodies) subtraction for each channel, before applying the NHI-Image J mean filter (with radius 2.0 pixels) to calculate mean NeuN fluorescence levels in individual MNs. Using this approach, we established a region of interest (ROI) to gate single MNs. On this ROI, we measured mean fluoresce levels (MFI) of target proteins.

Sortilin = Sortilin fluorescence in MNs of treated G93A mice; format: in vivo; conditions: 10 mg/kg, day 100
Source text: as §1, §2

SOD1^G93A aggregates = assay: Treatment of G93A mice from day 83 to day 103: motor performance, SOD1 aggregates (blue-native PAGE); format: in vivo; conditions: 10 mg/kg daily
Source text: SOD1 mutations increase its propensity to aggregate in cells. We checked whether compound 2a could reduce the accumulation of SOD1^G93A aggregates in vivo. Starting at postnatal day 83, we injected G93A mice and WT littermates daily with compound 2a. We scored motor performances in vehicle- and compound 2a-treated G93A mice until day 103. […] We resolved SC protein extracts by blue-native polyacrylamide gel electrophoresis, and probing them with anti-SOD1 antibodies we observed high molecular weight smears in G93A mice that were absent in WT litters. The intensity of such high MW entities was lowered in G93A mice treated with compound 2a (Supplementary Fig. 13b, c).
G93A mice and their WT litters were injected daily with vehicle or compound 2a (10 mg/kg, from day 83 to day 103). […] We incubated 250 µL of each extract with 100 mM Iodoacetamide (Sigma–Aldrich). […]
n=4 independent mice/group, data are collected from 1 experiment). […] Dividing black linesmark lanes cropped from the same filter;c, quantifications of the mutant forms of the SOD1 from mice treated with sham or with compound 2a (G93A-v: n=6 independent mice, G93A-2a: n=6 independent mice, data are derived from 2 independent experiments). […]

[1] = system: SOD1^G93A-transfected Neuro2a cells; assay: Lyso-tracker analysis of lysosomes in SOD1G93A-transfected Neuro2a cells; format: cell-based; conditions: 24 h starvation, 10µM
Description: Lysosomal alterations are early events in ALS[7],[56]. We speculated that an impairment of the retromer should alter protease trafficking via CI-MPR, and therefore disrupt lysosomal homeostasis. […] We transfected Neuro2a cells with plasmids encoding the Sh56-RNAi to downregulate VPS35. After 24 h of starvation, we analyzed the lysosomes using Lyso-tracker[58]. We observed enlarged and abnormally distributed lysosomes in cells with VPS35 interference by Sh56 (Supplementary Fig. 12a–c). […] We asked whether the overexpression of SOD1^G93A would also result in similar lysosomal alterations by transfecting Neuro2a cells with plasmids encoding SOD1^G93A, with or without compound 2a.
VPS35 knockdown impairs lysosomal stability
Panels a and b, Neuro2a cells (4x10^4cells/well) transfected with the scramble plasmid (0.5 µg/well, a)or with the VPS35 RNAi plasmids (Sh56, 0.5 µg/well, b) along with plasmid encoding the GFP (0.1 µg/well) and labelled with Lyso-tracker (75 nM). Quantifications of Lyso Tracker-covered areas (%± SD) in individual GFP+ cells were done on merged confocal images and data are shown in c (scramble: n=52 cells, Sh56: n=39 cells, data are collected from 3 independent experiments, p<0.0001). Protein lysates from Neuro2a cells (3x10^5 cells/well) receiving scramble or Sh56 plasmids (2 µg/well for 48h) were labelled for Ubiquitin and β-Actin (d). […]

NC(N)=N/N=C/c1cccc(/C=N/N=C(N)N)c1 [compound 2a, phenyl-1,3-bis-guanylhydrazone]
CI-MPR MFI levels in MNs (CI-MPR): significantly increased
Sortilin MFI levels in MNs (Sortilin): significantly increased
motor deficits (latency to fall) (SOD1^G93A aggregates): general attenuation of motor deficits
intensity of high MW SOD1 entities (blue-native PAGE) (SOD1^G93A aggregates; SC extracts): lowered
enlarged lysosomes (Lyso-tracker) [1]: significantly reverted this phenotype

Reference: PMC7395176, “Retromer stabilization results in neuroprotection in a model of Amyotrophic Lateral Sclerosis” (Nature Communications, 2020)
